Reference: patent US10150793B2, “Antagonists of CB1 receptor” (INSERM (Institut National de la Santé et de la Recherche …, priority 2011, dated 2018)

Legend:
CB1 receptor [1] = target: T1, CB1 receptor (Mus musculus, UniProt P47746); assay: THC-induced cannabinoid tetrad (body temperature, locomotor activity, catalepsy, analgesia); type: in vivo, mice; parameters: tissue Charles River Laboratories (France) (animals); host or cells: living mice, whole animal; conditions: mice; THC 10 mg/kg; compounds 6 mg/kg 15-30 min before THC
CB1 receptor [2] = target: T1, CB1 receptor; assay: THC-induced increase in food intake in mice; type: in vivo; parameters: tissue Charles River Laboratories (France) (animals); host or cells: living mice, whole animal; conditions: mice; THC between 0.5 and 1 mg/kg; compounds between 2 and 4 mg/kg 30 min before THC
Method: Food intake was evaluated by measuring consumption of food in the home cages of the animals. For each animal, 50-100 g of standard laboratory chow (U.A.R., France) was placed in the cleaned home cage. The remaining amount of food was weighted 1 h later and the amount of food consumed calculated.
(§1) Other pregnenolone derivatives (Table 4) for which the metabolism in downstream active steroids was reduced were tested for their ability to inhibit: 1. effects of the THC-induced cannabinoid tetrade (decrease in body temperature and in locomotor activity, (THC 10 mg/kg, compounds 6 mg/kg 15-30 min before THC) that is recognized as a sound method to evaluate the activation of the CB1 receptor; 2. THC-induced increase in food intake a typical effect of CB1 activation (THC between 0.5 and 1 mg/kg, compounds between 2 and 4 mg/kg 30 min before THC); 3. the increase in TNFalpha induced by LPS, another effects typical of CB1 […] (compounds 6 mg/kg 15 min before LPS). For each compound and each test independent groups of animals were used (at least n=6 per compound/per test).

CHO cells = assay: Study of metabolism in vitro in CHO cells, steroids in culture medium by GC/MS; conditions: CHO cells
Method: Plasma, brain and culture medium levels of pregnenolone (5-Pregnen-3β-ol-20-one), allopregnanolone (3α-hydroxy-5α-pregnan-20-one), epiallopregnanolone (3β-hydroxy-5α-pregnan-ol-20-one), testosterone, and 5α dihydrotestosterone were determined by GC/MS according to the of estraction, purification and quantification protocol described previously (George O, et al., Biol Psychiatry. 2010 68: 956-63, Vallee M, et al., Anal Biochem. 2000, 287:153-66).
The CHO-K1 cell line (#CCL-61, ATCC-LGC, USA) derived as a subclone from the parental CHO cell line initiated from a biopsy of an adult Chinese hamster ovary was used. The CHO-K1 cells were seeded on 24-well plates (#353047, BD Biosciences, USA) to the appropriate concentration (25×10^4 cells/well) in fresh, antibiotic-free medium constituted by 90% DMEM-Glutamax; (#31966-21, Life technologies, USA) and 10% Fetal Bovine Serum (#10270-106, Life technologies, USA).
In this example the inventors further analyzed the metabolism of pregnenolone derivatives using an in vitro test in CHO cells. These cells derived from the ovary have all the enzymes needed to metabolize pregnenolone in down stream steroids.

TNF-α = assay: Increase in plasma TNF-alpha induced by LPS; type: in vivo, mice; conditions: Mus musculus; mice; compounds 6 mg/kg 15 min before LPS
Method: Trunk blood was collected and centrifuged at 3000 rpm for 15 min at 4° C. Plasma was stored at −80° C. until measurement of TNFα was carried out. Plasma TNFα levels were assessed using an ELISA kit, following the manufacturer's instructions (Fisher Scientific, Catalog #E6473C).
In this example the inventors further analyzed the ability of pregnenolone to inhibit the effects of CB1 activation in the context of inflammation and fibrosis. […] TNF-alpha is one of the cellular responses to inflammatory stimuli more involved in promoting fibrosis.
as §1

GABA-A receptors = assay: GABA-A receptors-mediated mIPSC in nucleus accumbens principal neurons; type: cell-based, mouse
Method: GABA-A receptors-mediated currents: mIPSC were recorded in the presence of the AMPAR and NMDAR antagonists (DNQX 20 μM and AP-5 50 μM, respectably). mEPSC-mIPSC analysis: Typically, after breaking in, cells were left to equilibrate for 20 minutes and the subsequent 10 minutes recording of mEPSC-mIPSC was used to analysis. mEPSC-mIPSC were detected using a template generated from averaging several typical events (Clampfit 10, Molecular Devices). The template was slid along the data trace one point at a time. At each position, the template was optimally scaled and offset to fit the data. A lower-amplitude threshold of 7 pA and 10 pA were applied for mEPSC and mIPSC, respectably, equivalent to 2.5SD of baseline noise. For each cell, the kinetics of mEPSC-mIPSC was measured from the average event using Clampfit 10. To estimate decay times, a two exponentials curve was fitted between 5 and 95% of the decay phase of the current given by the following equation: y(t)=A1·e^(−t/τ1)+A2·e^(−t/τ2), where A is the amplitude, t is the time and τ is the decay time constant. The weighted tau was then calculated.
In order to evaluate the effect of pregnenolone on the function of post-synaptic GABA we recorded mIPSC and compared its amplitude and decay time between groups. We observed that mIPSC amplitude and decay time were similar between controls (amplitude: 17.9±0.8 pA; decay time: 11.1±0.3 ms) and slices pre-treated with pregnenolone (100 nM and 1 μM, respectively; amplitude: 17.3±0.4 pA, 15.9±0.4 pA; decay time: 10.2±0.4 ms, 10.8±0.5 ms).

T1 sequence (P47746 whole entry): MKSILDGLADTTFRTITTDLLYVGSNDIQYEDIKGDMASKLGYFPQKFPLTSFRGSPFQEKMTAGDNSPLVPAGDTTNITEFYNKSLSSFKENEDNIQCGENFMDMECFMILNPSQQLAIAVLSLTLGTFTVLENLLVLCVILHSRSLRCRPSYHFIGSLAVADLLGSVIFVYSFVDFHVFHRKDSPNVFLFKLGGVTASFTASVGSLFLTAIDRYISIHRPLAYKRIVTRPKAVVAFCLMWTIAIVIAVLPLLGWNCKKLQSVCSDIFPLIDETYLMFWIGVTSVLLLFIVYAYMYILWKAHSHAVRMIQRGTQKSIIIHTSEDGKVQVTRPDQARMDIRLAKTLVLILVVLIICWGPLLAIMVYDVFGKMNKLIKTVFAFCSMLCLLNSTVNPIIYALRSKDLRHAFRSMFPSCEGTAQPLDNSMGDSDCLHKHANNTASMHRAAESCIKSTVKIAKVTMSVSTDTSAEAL

Row | SMILES | % Inhibition temperature decrease (CB1 receptor [1]) | % increase in motor activity (CB1 receptor [1]) | % Inhibition of THC-Induced food intake (CB1 receptor [2]) | metabolism in downstream active steroids (Reduced metabolism / Metabolized) (CHO cells) | inhibition in vivo at 6 mg/kg (TNF-α) [%] | mIPSC amplitude (GABA-A receptors; slices pre-treated with 100 nM) [pA] | mIPSC decay time (GABA-A receptors; slices pre-treated with 100 nM) [ms] | mIPSC amplitude (GABA-A receptors; slices pre-treated with 1 μM) [pA] | mIPSC decay time (GABA-A receptors; slices pre-treated with 1 μM) [ms]
1 | C[C@@H](O)[C@H]1CCC2C3CCC4=C[C@@H](O)CC[C@]4(C)C3CC[C@@]21C (stereo in doubt) [Compound 12, 4-Pregnen-3β,20α-diol] | 42%, P < 0.004 | 100%, P < 0.16 | ≥100%, P < 0.001 | Reduced metabolism | 81 | – | – | – | –
2 | C[C@H](O)[C@@]1(O)CCC2C3CCC4=CC(=O)CC[C@]4(C)C3CC[C@@]21C (stereo in doubt) [Compound 14, 4-Pregnen-17α,20α-diol-3-one] | 45%, P < 0.001 | 277%, P < 0.004 | 70%, P < 0.06 | Reduced metabolism | 65 | – | – | – | –
3 | C[C@@H](O)[C@H]1CCC2C3CCC4=CC(=O)CC[C@]4(C)C3CC[C@@]21C (stereo in doubt) [Compound 18, 4-Pregnen-20α-ol-3-one] | 25%, P < 0.04 | 146%, P < 0.1 | 30%, P > 0.25 | Reduced metabolism | 65 | – | – | – | –
4 | C[C@H](O)[C@H]1CCC2C3CC=C4C[C@@H](O)CC[C@]4(C)C3CC[C@@]21C (stereo partly drawn) [Compound 20, 5-Pregnen-3β,20α-diol] | 34%, P < 0.04 | 123%, P < 0.04 | 85%, P < 0.03 | Reduced metabolism | 65 | – | – | – | –
5 | CC[C@]1(C(C)=O)CCC2C3CC=C4C[C@@H](O)CC[C@]4(C)C3CC[C@@]21C (stereo partly drawn) [Compound 32, 17α-Ethylpregnenolone] | 12%, P > 0.25 | −2%, P > 0.25 | – | Reduced metabolism | 64 | – | – | – | –
6 | CO[C@H]1CC[C@@]2(C)C(=CCC3C2CC[C@@]2(C)C3CC[C@]2(C)C(C)=O)C1 (stereo partly drawn) [Compound 35, 3β-Methoxy-17α-methylpregnenolone] | 33%, P < 0.01 | −32%, P > 0.24 | – | Reduced metabolism | 57 | – | – | – | –
7 | COC1(C(C)=O)CCC2C3CC=C4C[C@@H](O)CC[C@]4(C)C3CC[C@@]21C (some centres unmarked) [Compound 36, 17-Methoxypregnenolone] | 54%, P < 0.001 | 326%, P < 0.001 | ≥100%, P < 0.003 | Reduced metabolism | 37 | – | – | – | –
8 | CC(=O)C1=CC[C@H]2[C@@H]3CC=C4CCCC[C@]4(C)[C@H]3CC[C@]12C [Compound 39, 5,16-Pregnadien-20-one] | 56%, P < 0.001 | 309%, P < 0.001 | ≥100%, P < 0.02 | Reduced metabolism | 46 | – | – | – | –
9 | CC(=O)[C@@]1(C)CCC2C3CCC4=CC(=O)CC[C@]4(C)C3CC[C@@]21C (stereo partly drawn) [Compound 40, 17α-Methylprogesterone] | 18%, P < 0.02 | 57%, P < 0.21 | 74%, P < 0.07 | Reduced metabolism | 57 | – | – | – | –
10 | CC(=O)[C@H]1CCC2C3CC=C4C[C@@H](OCc5ccccc5)CC[C@]4(C)C3CC[C@@]21C (stereo partly drawn) [Compound 41, 3β-Benzyloxypregnenolone] | 38%, P < 0.001 | 106%, P < 0.03 | – | Reduced metabolism | 62 | – | – | – | –
11 | CC(=O)[C@H]1CCC2C3CC[C@@H]4C[C@@H](O)CC[C@]4(C)C3CC[C@@]21C (stereo partly drawn) [Compound 46, 5α-Pregnan-3α-ol-20-one (Allopregnanolone), reference compound] | – | – | – | Metabolized | – | 15.9±0.5 | 13.6 ± 0.7 | 20.2±1.2 | 22.7 ± 2.3
12 | CC(=O)[C@H]1CC[C@H]2[C@@H]3CC[C@@H]4CC(=O)CC[C@]4(C)[C@H]3CC[C@]12C [Compound 60, 5β-Pregnan-3,20-dione] | 66%, P < 0.0001 | 70%, P < 0.05 | ≥100%, P < 0.002 | – | 77 | – | – | – | –
13 | CC(=O)[C@@]1(Cc2ccccc2)CCC2C3CC=C4C[C@@H](O)CC[C@]4(C)C3CC[C@@]21C (stereo partly drawn) [Compound 65, 17α-Benzylpregnenolone] | 53%, P < 0.003 | 142%, P < 0.03 | ≥100%, P < 0.001 | Reduced metabolism | 65 | – | – | – | –
14 | CC(=O)[C@H]1CCC2C3CC=C4CC(N=[N+]=[N-])CC[C@]4(C)C3CC[C@@]21C (some centres unmarked) [Compound 72, 3-Azidopregnenolone] | 34%, P < 0.05 | 145%, P < 0.05 | ≥100%, P < 0.001 | Reduced metabolism | 61 | – | – | – | –
15 | CC(=O)[C@H]1CCC2C3CC[C@@H]4C[C@@H](O)CC[C@]4(C)C3CC[C@@]21C (stereo partly drawn) [Compound 77, 5β-Pregnan-3β-ol-20-one (Epipregnanolone)] | 70%, P < 0.0001 | 177%, P < 0.02 | ≥100%, P < 0.01 | Reduced metabolism | 76 | – | – | – | –
